Some test systems named below: A498; A549; ACHN; CCRF-CEM; HCT-116; HOP-62; Hs-578T; IGROV-1; KM12; MDA-N; NCI-H226; NCI-H460; OVCAR-3; OVCAR-8; SF-268; SNB-19; RXF 393; SK-MEL-28; TK-10; HOP-92.
Holding throughout (experiment): growth of human tumour cells (NCI), 48 h

Each structure is given as a SMILES string.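 Exposure lasted 48 hours, with cells grown in 96-well plates and compounds tested at five concentrations. GI50: concentration for 50% inhibition of growth.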 Activity calls are given as the source filed them. No stated cut-off is given here; in the data, active = GI50 up to about 1.1 µM and inactive = higher.

Turning to `CC1=C(O)C(=O)C2=C(C1=O)[C@@H]([C@@H](C)C/C=C/C(C)(C)O)CC[C@@H]2C`, the GI50 with A498 is > 100 µM (inactive); in the assay with A549, 53.5 µM (inactive); with ACHN it was 31.4 µM (inactive); with CCRF-CEM, 28.8 µM (inactive); with HCT-116 it was 38.1 µM (inactive); with HOP-62, > 100 µM (inactive). The GI50 is 48.6 µM (inactive) with Hs-578T; 69.5 µM (inactive) in the assay on IGROV-1; 31.2 µM (inactive) with KM12; 44.8 µM (inactive) in the assay on MDA-N; 74.5 µM (inactive) in the assay on NCI-H226; 55.5 µM (inactive) in the assay with NCI-H460. In addition, the GI50 in the assay on OVCAR-3 was 25.5 µM (inactive); in the assay with OVCAR-8, 78.9 µM (inactive); in the assay with SF-268, 30.7 µM (inactive); in the assay on SNB-19, 83.6 µM (inactive).

Consider `O=C1Nc2ccccc2/C1=N/Nc1c(F)c(F)c(F)c(F)c1F`, for which the GI50 with A498 was 66.8 µM (inactive); in the assay on A549, > 100 µM (inactive); in the assay on ACHN, 18 µM (inactive); in the assay with CCRF-CEM, 4 µM (inactive); with HCT-116 it was 47.8 µM (inactive); in the assay with HOP-62, > 100 µM (inactive). Besides, the GI50 with Hs-578T is 86.7 µM (inactive); with IGROV-1, 20.5 µM (inactive); in the assay with KM12, 16.1 µM (inactive); in the assay with MDA-N, 32.2 µM (inactive); in the assay with NCI-H226, 53 µM (inactive); in the assay with NCI-H460, 93.3 µM (inactive). The GI50 in the assay on OVCAR-3 is > 100 µM (inactive); in the assay on OVCAR-8 it was 41.9 µM (inactive); in the assay with RXF 393 it was 53.8 µM (inactive); in the assay with SF-268 it was 49.5 µM (inactive); in the assay with SK-MEL-28, > 100 µM (inactive); in the assay with SNB-19, > 100 µM (inactive). For the same molecule, in the assay with TK-10, the GI50 was 22 µM (inactive).

On to `CCOC(=O)[C@H](C)OC(=O)[C@@](C)(NC(=O)c1ccccc1C(=O)OC)[C@@H]1NC=C(C(=O)OC)CS1`, for which the GI50 is > 100 µM (inactive) in the assay with A498; > 100 µM (inactive) with A549; > 100 µM (inactive) with ACHN; 20.3 µM (inactive) in the assay with CCRF-CEM; > 100 µM (inactive) in the assay with HCT-116; > 100 µM (inactive) in the assay on HOP-62. In addition, the GI50 in the assay with Hs-578T was > 100 µM (inactive); in the assay on IGROV-1 it was 80 µM (inactive); in the assay on KM12, > 100 µM (inactive); in the assay with MDA-N, 21.9 µM (inactive); with NCI-H226, > 100 µM (inactive); in the assay on NCI-H460, 80.4 µM (inactive). Moreover, the GI50 is > 100 µM (inactive) with OVCAR-3; > 100 µM (inactive) with OVCAR-8; 97.9 µM (inactive) in the assay on RXF 393; > 100 µM (inactive) with SF-268; > 100 µM (inactive) in the assay with SK-MEL-28; > 100 µM (inactive) in the assay on SNB-19. The GI50 with TK-10 was > 100 µM (inactive).

Consider `Cc1cc(Nc2ccc(NS(C)(=O)=O)cc2)c2c(ccc3[nH]ccc32)n1`, for which the GI50 with A498 is 21.2 µM (inactive); in the assay with A549 it was 33.3 µM (inactive); in the assay on ACHN, 22.8 µM (inactive); in the assay on CCRF-CEM, 7.87 µM (inactive); with HCT-116 it was 17.2 µM (inactive); with HOP-62, 19.4 µM (inactive). The GI50 in the assay with HOP-92 was 19 µM (inactive); in the assay on Hs-578T, 28.6 µM (inactive); in the assay with IGROV-1 it was 28.6 µM (inactive); with KM12, 10.8 µM (inactive); with MDA-N, 17.6 µM (inactive); with NCI-H226 it was 19.5 µM (inactive). Further, the GI50 with NCI-H460 was 19.3 µM (inactive); in the assay with OVCAR-3 it was 13.1 µM (inactive); in the assay with OVCAR-8, 22.9 µM (inactive); in the assay with SF-268, 7.24 µM (inactive); in the assay on SK-MEL-28, 17.7 µM (inactive); with SNB-19, 18.1 µM (inactive). In addition, the GI50 in the assay on TK-10 was 28.6 µM (inactive).

Turning to `O=C1NC2(CCCCC2)N=C2C(Cl)CCCC12Cl` (centres undefined), the GI50 in the assay with A498 is > 100 µM (inactive); with A549, 0.0535 µM (active); with ACHN it was > 100 µM (inactive); in the assay with CCRF-CEM, > 100 µM (inactive); with HOP-62 it was > 100 µM (inactive); in the assay on Hs-578T, > 100 µM (inactive). For the same molecule, the GI50 with IGROV-1, in the assay with KM12, with MDA-N, in the assay on NCI-H226, with NCI-H460 and in the assay on OVCAR-3 was > 100 µM (inactive) throughout. Also, the GI50 with OVCAR-8, with RXF 393, in the assay on SF-268, in the assay with SK-MEL-28, in the assay on SNB-19 and in the assay with TK-10 was > 100 µM (inactive) each time.

Consider `COc1ccc([N+](=O)[O-])c2c(NCC(O)CO)ccnc12` (centres undefined), for which the GI50 in the assay with A498 was 32.4 µM (inactive); with A549 it was 35 µM (inactive); with ACHN it was 43.8 µM (inactive); with CCRF-CEM, 87.1 µM (inactive); with HCT-116, 28.9 µM (inactive); in the assay with HOP-62, 38.6 µM (inactive). For the same molecule, the GI50 with Hs-578T is 22.5 µM (inactive); with IGROV-1 it was 27.3 µM (inactive); in the assay with KM12 it was 37.8 µM (inactive); in the assay with MDA-N it was 49.3 µM (inactive); with NCI-H460, 16.9 µM (inactive); in the assay on OVCAR-3, 24.2 µM (inactive). The GI50 was 50.4 µM (inactive) in the assay with OVCAR-8; 28.1 µM (inactive) in the assay with RXF 393; 35.9 µM (inactive) with SF-268; > 100 µM (inactive) in the assay with SK-MEL-28; 93.8 µM (inactive) in the assay with SNB-19; 67.5 µM (inactive) with TK-10.

For `CC(C)(C)OC(=O)n1c(Cl)c(C=O)c2ccccc21`, the GI50 with A498 is 43.6 µM (inactive); with A549, 92.9 µM (inactive); with ACHN, 23.9 µM (inactive); in the assay with CCRF-CEM, 27.9 µM (inactive); with HOP-62, 20.6 µM (inactive); with HOP-92, 30.9 µM (inactive). The GI50 in the assay with Hs-578T is 34.8 µM (inactive); in the assay with IGROV-1 it was 28.2 µM (inactive); in the assay on KM12, 18.4 µM (inactive); in the assay with MDA-N, 44.5 µM (inactive); with NCI-H460, 21.2 µM (inactive); in the assay on OVCAR-3 it was 19.4 µM (inactive). The GI50 in the assay with OVCAR-8 was 28.1 µM (inactive); in the assay with SF-268, 17.9 µM (inactive); in the assay with SK-MEL-28, 39.9 µM (inactive); with SNB-19, 86.1 µM (inactive); in the assay on TK-10, 25.6 µM (inactive).

`Cc1ccc(S(=O)(=O)c2c(O)c3ccc(O)c(C)c3oc2=O)cc1`: the GI50 with A549, with ACHN, in the assay with CCRF-CEM, in the assay with HCT-116, with HOP-92 and with Hs-578T was > 100 µM (inactive) in each case. Further, the GI50 in the assay on IGROV-1, with KM12, in the assay on MDA-N, with NCI-H226, with NCI-H460 and in the assay on OVCAR-3 was > 100 µM (inactive) in each case. Further, the GI50 in the assay on OVCAR-8, in the assay on RXF 393, in the assay with SF-268, with SK-MEL-28, in the assay with SNB-19 and with TK-10 was > 100 µM (inactive) each time.

The values are drawn from ChEMBL document CHEMBL1201862, “PubChem BioAssay data set” (2004).
